Assay [1] has as its system primary human T-cells. In words: Proliferation assay after 5 days (CellTiter-Glo, CD3 stimulation; PBS counter screen). In kind it is cell-based. Conditions: Homo sapiens, T-cell, 120 h, CD3 stimulation; for Emax: 5 days, normalized to reference compound A1 as stimulator control = 100%, DMSO neutral control, read-out: Emax proliferation (% activation); for pEC50: primary human T-cells, CellTiter-Glo after 5 days, EC50 of fitted sigmoidal curve, read-out: Tcell Proliferation CD3 EC50. The method, boiled down: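 Compounds were added to medium-only plates, and proliferation was read 5 days later as luminescence from CellTiter-Glo 2.0, whose ATP signal is proportional to cell number. Plates and reagent were equilibrated to room temperature for 45 min before an equal volume of reagent was added, with 15 min rocking.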
For orientation: In ATP-based viability assays light output follows the ATP content of the culture.

Assay [2] relates to primary human T-cells.

Structures are written as SMILES. pEC50: −log10 of the molar value. Where two headings read alike, the source gives them in different places. Some results are limits rather than exact numbers.

In the case of `CC(=O)N[C@H]1CS(=O)(=O)c2cc(F)c(-c3nnn(C4CNCC(F)(F)C4)n3)cc2N(Cc2ccc(Cl)cc2)C1=O` (stereo partly drawn) [Example 26, N-[(3R)-5-[(4-chlorophenyl)methyl]-7-[2-(5,5-difluoro-3-piperidyl)tetrazol-5-yl]-8-fluoro-1,1,4-trioxo-2,3-dihydro-1λ^6,5-benzothiazepin-3-yl]acetamide], in the assay on primary human T-cells [1], the Emax worked out at 64% and the pEC50 was 5.19. The pEC50 in the assay on primary human T-cells [2] was less than 5.00.

Turning to `COC1(c2nnc(-c3ccc4c(c3)N(Cc3ccc(Cl)cc3)C(=O)[C@@H](N)CS4(=O)=O)o2)CCC(F)(F)CC1` [Example 378, (3R)-3-amino-5-[(4-chlorophenyl)methyl]-7-[5-(4,4-difluoro-1-methoxy-cyclohexyl)-1,3,4-oxadiazol-2-yl]-1,1-dioxo-2,3-dihydro-1λ^6,5-benzothiazepin-4-one], the Emax in the assay on primary human T-cells [1] came to 74%. The pEC50 in the assay on primary human T-cells [1] was 6.35; in the assay on primary human T-cells [2] it was less than 5.00.

For `CC(C)(C)n1nnc(-c2cc3c(cc2F)S(=O)(=O)C[C@H](N)C(=O)N3Cc2ccc(OCC3CCOCC3)cc2)n1` [Example 33, (3R)-3-amino-7-(2-tert-butyltetrazol-5-yl)-8-fluoro-1,1-dioxo-5-[[4-(tetrahydropyran-4-ylmethoxy)phenyl]methyl]-2,3-dihydro-1λ^6,5-benzothiazepin-4-one], in the assay on primary human T-cells [1], the Emax was 104% and the pEC50 was 5.72. The compound also had a pEC50 in the assay with primary human T-cells [2] of 5.28.

For the compound `N[C@H]1CS(=O)(=O)c2cc(F)c(-c3nnc(C4CCC(F)(F)C4)o3)cc2N(Cc2ccc(Cl)cc2)C1=O` (stereo partly drawn) [Example 75, (3R)-3-Amino-5-[(4-chlorophenyl)methyl]-7-[5-(3,3-difluorocyclopentyl)-1,3,4-oxadiazol-2-yl]-8-fluoro-1,1-dioxo-2,3-dihydro-1λ^6,5-benzothiazepin-4-one], in the assay with primary human T-cells [1], the Emax is 161% and the pEC50 was 7.45. In the assay with primary human T-cells [2], this compound gave a pEC50 of 6.94.

Take `N[C@H]1CS(=O)(=O)c2cc(F)c(-c3noc(C(F)(F)C(F)(F)F)n3)cc2N(Cc2ccc(Cl)cc2)C1=O` [Example 326, (3R)-3-amino-5-[(4-chlorophenyl)methyl]-8-fluoro-1,1-dioxo-7-[5-(1,1,2,2,2-pentafluoroethyl)-1,2,4-oxadiazol-3-yl]-2,3-dihydro-1λ^6,5-benzothiazepin-4-one]: in the assay on primary human T-cells [1], the Emax stood at 129%. Moreover, the pEC50 in the assay with primary human T-cells [1] is 6.04; in the assay on primary human T-cells [2] it was 6.15.

As for `N[C@H]1C[S+]([O-])c2cc(F)c(-c3noc(N4CCOCC4)n3)cc2N(Cc2ccc(Cl)cc2)C1=O` (single isomer, unassigned; epimer a) [Example 209], in the assay on primary human T-cells [1], the Emax was determined as 92% and the pEC50 was 5.39. Moreover, in the assay on primary human T-cells [2], the pEC50 is 5.24.

Turning to `COC(F)(c1nnc(-c2ccc3c(c2)N(Cc2ccc(OC(F)(F)F)cc2)C(=O)[C@@H](N)CS3(=O)=O)o1)C(F)(F)F` (stereo partly drawn) [Example 424, (3R)-3-amino-1,1-dioxo-7-[5-(1,2,2,2-tetrafluoro-1-methoxy-ethyl)-1,3,4-oxadiazol-2-yl]-5-[[14-(trifluoromethoxy)phenyl]methyl]-2,3-dihydro-1λ^6,5-benzothiazepin-4-one], the Emax in the assay on primary human T-cells [1] was 88%. Besides, the pEC50 in the assay with primary human T-cells [1] was 7.14; in the assay on primary human T-cells [2] it was 7.16.

As for `CN[C@@H](CO)C(=O)N[C@H]1CS(=O)(=O)c2cc(F)c(-c3nnc(C(C)(C)C)o3)cc2N(Cc2ccc(Cl)cc2)C1=O` [Example 269, (2S)-3-hydroxy-2-(methylamino)-N-[(3R)-7-(5-tert-butyl-1,3,4-oxadiazol-2-yl)-5-[(4-chlorophenyl)methyl]-8-fluoro-1,1,4-trioxo-2,3-dihydro-1λ^6,5-benzothiazepin-3-yl]propanamide], in the assay on primary human T-cells [1], the Emax is 67% and the pEC50 was 5.23. In the assay with primary human T-cells [2], this compound gave a pEC50 of less than 5.00.

These data come from patent US20240368150A1 (Hoffmann-La Roche Inc., priority 2021, published 2024).
